In ChEMBL document CHEMBL5614376, “Discovery of MT-1207: A Novel, Potent Multitarget Inhibitor as a Promising Clinical Candidate for the Treatment of Hypertension” (J Med Chem, 2024):

Key:
[1] = Tmax in male Sprague-Dawley rat at 10 mg/kg, po qd treated for 13 weeks consecutively measured after recovery period on day 91 by UP/LC/MS/MS analysis; format: ADME, organism-based; details: in vivo, time 91 day
[2] = Plasma protein binding in human at 0.1 uM incubated for 30 mins; format: ADME, cell-free; details: read-out: PPB (converted)
[3] = Plasma protein binding in Beagle dog at 10 uM incubated for 30 mins; format: ADME, cell-free, Canis lupus familiaris; details: read-out: PPB (converted)
[4] = Cmax in male Sprague-Dawley rat at 30 mg/kg, po measured on day 1 by UP/LC/MS/MS analysis; format: ADME, organism-based; details: in vivo, time 1 day
[5] = Toxicity in male Sprague-Dawley rat assessed as reduction in body weight at 30 mg/kg, po qd treated for 11 days consecutively; format: organism-based; set-up: scale not given: the % may be the effect or the level left; details: in vivo, 264 h, time 11 day
Rattus norvegicus [6] = experiment: Effect on postural hypotension in Sprague-Dawley rat assessed as change in systolic blood pressure at 5 mg/kg, po treated for >30 mins followed by induction of postural hypotension measured 3 secs after postural change (reference value: 124 +/- 10 mmHg); format: functional; details: time > 30.05 min, 0.5008 h
[7] = AUC (0 to t) in male Sprague-Dawley rat at 100 mg/kg, po qd treated for 13 weeks consecutively measured after recovery period on day 91 by UP/LC/MS/MS analysis; format: ADME, organism-based; details: in vivo, time 91 day
[8] = Metabolic stability in Beagle dog liver microsomes assessed as drug elimination at 10 umol/L incubated for 5 mins in presence of NADPH by LC-MS/MS analysis; format: ADME, Canis lupus familiaris, Microsome; details: 10 µM, dose 10 µmol/L
[9] = target: T1, 5-hydroxytryptamine receptor 2A (Homo sapiens, UniProt P28223); experiment: Displacement of [3H]Ketanserin from recombinant human 5-HT2A receptor extracted from CHO cell membrane at 100 nM incubated for 60 mins by radioligand binding assay relative to control; format: cell membranes; details: filed as antagonist
[10] = Metabolic stability in macaque liver microsomes assessed as drug elimination at 10 umol/L incubated for 5 mins in presence of NADPH by LC-MS/MS analysis; format: ADME, Microsome; details: macaca, 10 µM, dose 10 µmol/L
[11] = Apparent volume of distribution during terminal phase in Sprague-Dawley rat at 3 mg/kg, po measured for 24 hrs by UPLC/MS/MS analysis; format: ADME, organism-based; details: in vivo, read-out: Vz/F
[12] = AUC (0 to t) in female Sprague-Dawley rat at 100 mg/kg, po measured on day 1 by UP/LC/MS/MS analysis; format: ADME, organism-based; details: in vivo, time 1 day
[13] = AUC (0 to t) in Sprague-Dawley rat at 1 mg/kg, iv measured for 24 hrs by UPLC/MS/MS analysis; format: ADME, organism-based; details: in vivo
[14] = target: T1, 5-hydroxytryptamine receptor 2A; experiment: Displacement of [3H]Ketanserin from recombinant human 5-HT2A receptor extracted from CHO cell membrane at 1 nM incubated for 60 mins by radioligand binding assay relative to control; format: cell membranes; details: filed as antagonist
[15] = Apparent volume of distribution during terminal phase in Sprague-Dawley rat at 1 mg/kg, iv measured for 24 hrs by UPLC/MS/MS analysis; format: ADME, organism-based; details: in vivo
[16] = Cmax in female Sprague-Dawley rat at 100 mg/kg, po qd treated for 13 weeks consecutively measured after recovery period on day 91 by UP/LC/MS/MS analysis; format: ADME, organism-based; details: in vivo, time 91 day
[17] = AUC (0 to t) in female Sprague-Dawley rat at 30 mg/kg, po measured on day 1 by UP/LC/MS/MS analysis; format: ADME, organism-based; details: in vivo, time 1 day
[18] = Acute toxicity in Sprague-Dawley rat assessed as unscheduled animal fatality at 250 to 1000 mg/kg, po single administration measured for 14 days; format: organism-based; details: in vivo, 336 h, dose 250-1000 mg/kg, time 14 day
[19] = Toxicity in Sprague-Dawley rat assessed as unplanned animal mortality at 10 to 100 mg/kg, po qd treated for 13 weeks consecutively measured after 4 week recovery period; format: organism-based; details: in vivo, 2856 h, dose 10-100 mg/kg, time 17 weeks
[20] = Toxicity in Sprague-Dawley rat assessed as body weight anomaly at 10 mg/kg, po qd treated for 13 weeks consecutively measured after 4 week recovery period; format: organism-based; details: in vivo, 2856 h, time 17 weeks
[21] = Metabolic stability in human liver microsomes assessed as drug elimination at 10 umol/L incubated for 5 mins in presence of NADPH by LC-MS/MS analysis; format: ADME, Microsome; details: 10 µM, dose 10 µmol/L
[22] = Half life in Sprague-Dawley rat at 9 mg/kg, po measured for 24 hrs by UPLC/MS/MS analysis; format: ADME, organism-based; details: in vivo
[23] = AUC (0 to t) in male Sprague-Dawley rat at 30 mg/kg, po qd treated for 13 weeks consecutively measured after recovery period on day 91 by UP/LC/MS/MS analysis; format: ADME, organism-based; details: in vivo, time 91 day
[24] = Plasma protein binding in Sprague-Dawley rat at 10 uM incubated for 30 mins; format: ADME, cell-free; details: read-out: PPB (converted)
[25] = AUC (0 to t) in male Sprague-Dawley rat at 30 mg/kg, po measured on day 1 by UP/LC/MS/MS analysis; format: ADME, organism-based; details: in vivo, time 1 day
[26] = Tmax in female Sprague-Dawley rat at 10 mg/kg, po measured on day 1 by UP/LC/MS/MS analysis; format: ADME, organism-based; details: in vivo, time 1 day
Rattus norvegicus [27] = experiment: Antihypertensive activity in 2K2C renovascular hypertensive Sprague-Dawley rat model assessed as systolic blood pressure at 10 mg/kg, po measured after 9 weeks (Rvb ~ 202 mmHg); format: functional
[28] = Cmax in female Sprague-Dawley rat at 10 mg/kg, po measured on day 1 by UP/LC/MS/MS analysis; format: ADME, organism-based; details: in vivo, time 1 day
Rattus norvegicus [29] = experiment: Effect on postural hypotension in Sprague-Dawley rat assessed as change in systolic blood pressure at 10 mg/kg, po treated for >30 mins followed by induction of postural hypotension measured 20 secs after postural change (reference value: 129 +/- 11 mmHg); format: functional; details: time > 30.33 min, 0.5055 h
[30] = Toxicity in Sprague-Dawley rat assessed as notable drug-related change at 10 to 100 mg/kg, po qd treated for 13 weeks consecutively measured after 4 week recovery period; format: organism-based; details: in vivo, 2856 h, dose 10-100 mg/kg, time 17 weeks

T1 sequence (P28223 whole entry): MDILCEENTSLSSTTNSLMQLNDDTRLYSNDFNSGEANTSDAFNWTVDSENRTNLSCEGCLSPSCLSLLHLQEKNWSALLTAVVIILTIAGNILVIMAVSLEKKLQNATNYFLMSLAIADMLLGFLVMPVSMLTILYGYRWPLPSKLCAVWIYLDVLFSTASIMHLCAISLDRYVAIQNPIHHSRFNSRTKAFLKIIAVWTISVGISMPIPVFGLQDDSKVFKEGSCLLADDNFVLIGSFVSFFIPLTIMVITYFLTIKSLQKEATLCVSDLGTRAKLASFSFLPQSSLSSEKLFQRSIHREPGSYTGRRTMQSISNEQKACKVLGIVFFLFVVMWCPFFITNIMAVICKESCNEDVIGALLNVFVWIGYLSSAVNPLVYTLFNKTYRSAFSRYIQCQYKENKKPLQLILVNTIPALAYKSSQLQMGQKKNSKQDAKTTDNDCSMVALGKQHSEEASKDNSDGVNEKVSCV

Compound: Cl.c1ccc2c(c1)nnn2CCCCN1CCN(c2nsc3ccccc23)CC1
- Tmax [1]: 1.3 h
- fraction unbound at 0.5 h, 0.1 µM [2]: 0.003
- fraction unbound at 0.5 h, 10 µM [3]: 0.007
- Cmax [4]: 109 ng/mL
- Activity [5]: ~ 3.3%
- Activity (Rattus norvegicus [6]): 80 mmHg
- AUC(0-t) at 2184 h [7]: 4790 ng·h/mL
- Drug excretion [8]: Active
- inhibition [9]: 99%
- Drug excretion [10]: Active
- Vd/F [11]: 22.4 L
- AUC(0-t) at 24 h [12]: 7910 ng·h/mL
- AUC(0-t) at 24 h [13]: 440 ng·h/mL
- inhibition [14]: 43.7%
- Vz/F [15]: 4.5 L
- Cmax [16]: 745 ng/mL
- AUC(0-t) at 24 h [17]: 1440 ng·h/mL
- Activity [18]: Non-Toxic
- Activity [19]: Non-Toxic
- Activity [20]: Non-Toxic
- Drug excretion [21]: Active
- half-life [22]: 1.89 h
- AUC(0-t) at 2184 h [23]: 672 ng·h/mL
- fraction unbound at 0.5 h, 10 µM [24]: 0.017
- AUC(0-t) at 24 h [25]: 318 ng·h/mL
- Tmax [26]: 1.3 h
- Activity (Rattus norvegicus [27]): 169 mmHg
- Cmax [28]: 88.7 ng/mL
- Activity (Rattus norvegicus [29]): 85 mmHg
- Activity [30]: Non-Toxic
